According to patent US20100104567A1, “PHARMACEUTICAL COMPOSITION” (KYOWA HAKKO KIRIN CO., LTD., priority 2007, published 2010):
Like-named read-outs stand apart in the source and are kept apart here.

Assays:
[1] = tested on: human colon cancer Colo205 cells; test: Antitumor effect of Flt-3 inhibitor and 5-fluorouracil (5-FU) in mouse models transplanted with Colo205 cells; type: in vivo; details: day 7; BALB/cAJcl-nu mice, s.c. Colo205; Compound 9 20 mg/kg oral twice a day x 5 days; 5-FU 10 mg/kg i.v. once a day x 5 days
[2] = tested on: human renal cancer Caki-1 cells; test: Antitumor effect of Flt-3 inhibitor and sunitinib in mouse models transplanted with Caki-1 cells; details: day 18; BALB/cAJcl-nu mice, s.c. Caki-1 tumor pieces; Compound 9 50 mg/kg oral twice a day days 0-4; sunitinib 40 mg/kg oral twice a day x 5 days (alone days 0-4, combined days 7-11)
[3] = tested on: human acute myeloid leukemia MOLM-13 cells; test: Antitumor effect of Flt-3 inhibitor and cytarabine in mouse models transplanted with MOLM-13 cells; details: day 14; scid mice, s.c. MOLM-13; Compound 9 5 mg/kg oral twice a day x 14 days; cytarabine 75 mg/kg i.v. once a day x 5 days
[4] = tested on: human colon cancer Colo205 cells; test: Antitumor effect of Flt-3 inhibitor and irinotecan in mouse models transplanted with Colo205 cells; type: in vivo; details: day 11; BALB/cAJcl-nu mice, s.c. Colo205; Compound 9 20 mg/kg oral twice a day x 5 days; irinotecan 67 mg/kg i.v. days 0 and 3
Procedure: [formula] […] Irinotecan was suspended in physiological saline at a concentration of 6.7 mg/mL. […] A. […] B. […] C. Irinotecan alone group: 67 mg/kg (once a day/days zero and 3 after the start of administration) D.

[5] = tested on: human acute myeloid leukemia HL-60 cells; test: Antitumor effect of Flt-3 inhibitor and daunorubicin in mouse models transplanted with HL-60 cells; type: in vivo; details: day 17; scid mice, s.c. HL-60; Compound 9 20 mg/kg oral twice a day x 14 days; daunorubicin 2.5 mg/kg i.v. once a day x 3 days
Procedure: B. Compound 9 alone group: 20 mg/kg (twice a day×14 days)
C. Daunorubicin alone group: 2.5 mg/kg (once a day×3 days)
D. Compound 9+daunorubicin: 20 mg/kg (twice a day×14 days) for Compound 9, and 2.5 mg/kg (once a day×3 days) for daunorubicin

[6] = tested on: human pancreatic cancer MIA-Paca-2 cells; test: Antitumor effect of Flt-3 inhibitor and cetuximab in mouse models transplanted with MIA-Paca-2 cells; type: in vivo; details: day 24; scid mice, s.c. MIA-PaCa-2; Compound 9 50 mg/kg oral twice a day x 5 days; cetuximab 2.5 mg/head i.v. days 0, 3, 6, 9, 12
[7] = tested on: human pancreatic cancer MIA-Paca-2 cells; test: Antitumor effect of Flt-3 inhibitor and gemcitabine in mouse models transplanted with MIA-Paca-2 cells; type: in vivo; details: day 24; scid mice, s.c. MIA-PaCa-2; Compound 9 25 mg/kg oral twice a day x 5 days; gemcitabine 60 mg/kg i.v. days 0, 3, 7, 10
Procedure: [formula] […] A. […] B. […] C. Gemcitabine alone group: 60 mg/kg (once a day/days zero, 3, 7, and 10 after the start of administration) D.

[8] = tested on: human renal cancer Caki-1 cells; details: day 10; BALB/cAJcl-nu mice, s.c. Caki-1 tumor pieces; Compound 9 25 mg/kg oral twice a day x 5 days; erlotinib 50 mg/kg oral once a day x 5 days
[9] = tested on: human acute myeloid leukemia MOLM-13 cells; test: Antitumor effect of Flt-3 inhibitor and Hsp90 inhibitor in mouse models transplanted with MOLM-13 cells; type: in vivo; details: day 7; scid mice, s.c. MOLM-13; Compound P 12.5 mg/kg i.v. twice a day x 5 days; Compound 9 10 mg/kg oral twice a day x 5 days

O=c1[nH]cc(F)c(=O)[nH]1 [Compound 5-FU, 5-fluorouracil, reference compound]
T/C (V/V0 of group divided by V/V0 of negative control group) [1]: 0.81

O=C(c1ccc(/C=C/c2n[nH]c3ccccc23)cc1)N1CCNCC1 [Compound 9]
T/C (V/V0 of group divided by V/V0 of negative control group) [2]: 0.50
T/C (V/V0 of group divided by V/V0 of negative control group) [3]: 0.29
T/C (V/V0 of group divided by V/V0 of negative control group) [4]: 0.75
T/C (V/V0 of group divided by V/V0 of negative control group) [5]: 0.42
T/C (V/V0 of group divided by V/V0 of negative control group) [6]: 0.59
T/C (V/V0 of group divided by V/V0 of negative control group) [7]: 0.84
T/C (V/V0 of group divided by V/V0 of negative control group) [1]: 0.68
T/C (V/V0 of group divided by V/V0 of negative control group) [8]: 0.71
T/C (V/V0 of group divided by V/V0 of negative control group) [9]: 0.29

CCc1c(O)cc(O)c(C(=O)c2ccc(OCCN3CCOCC3)c(OC)c2)c1CC(=O)N(CCOC)CCOC [Compound P, 2-{2-ethyl-3,5-dihydroxy-6-[3-methoxy-4-(2-morpholinoethoxy)benzoyl]pheny1]-N,N-bis(2-methoxyethyl)acetamide, reference compound]
T/C (V/V0 of group divided by V/V0 of negative control group) [9]: 0.53

Nc1ccn([C@@H]2O[C@H](CO)[C@@H](O)[C@@H]2O)c(=O)n1 [Cytarabine, reference compound]
T/C (V/V0 of group divided by V/V0 of negative control group) [3]: 0.62

COc1cccc2c1C(=O)c1c(O)c3c(c(O)c1C2=O)C[C@@](O)(C(C)=O)C[C@@H]3O[C@H]1C[C@H](N)[C@H](O)[C@H](C)O1 [Daunorubicin, reference compound]
T/C (V/V0 of group divided by V/V0 of negative control group) [5]: 0.61

C#Cc1cccc(Nc2ncnc3cc(OCCOC)c(OCCOC)cc23)c1 [Erlotinib, reference compound]
T/C (V/V0 of group divided by V/V0 of negative control group) [8]: 0.89

Nc1ccn([C@@H]2O[C@H](CO)[C@@H](O)C2(F)F)c(=O)n1 [Gemcitabine, reference compound]
T/C (V/V0 of group divided by V/V0 of negative control group) [7]: 0.57

CCc1c2c(nc3ccc(OC(=O)N4CCC(N5CCCCC5)CC4)cc13)-c1cc3c(c(=O)n1C2)COC(=O)[C@]3(O)CC [Irinotecan, reference compound]
T/C (V/V0 of group divided by V/V0 of negative control group) [4]: 0.65

CCN(CC)CCNC(=O)c1c(C)[nH]c(/C=C2\C(=O)Nc3ccc(F)cc32)c1C [Sunitinib, reference compound]
T/C (V/V0 of group divided by V/V0 of negative control group) [2]: 0.62
